# According to patent US9926281B2 (priority 2014, dated 2018):
# Tests used:
# human MMP13 = human MMP13 (Homo sapiens (Human), UniProt P45452); details: read-out: hMMP-13 potency IC50
# Procedure: Human MMP13 is preactivated by incubated the enzyme in the same buffer complemented with 1 mM freshly prepared p-Aminophenylmercuric acetate (AMPA) for 1 hour at 37° C.
# rnADAMTS-5 (1-564-6H) = rnADAMTS-5 (1-564-6H) (Rattus norvegicus, UniProt Q6TY19); details: read-out: Rat ADAMTS-5 potency IC50
# human ADAMTS-5 = human ADAMTS-5 (Homo sapiens (Human), UniProt Q9UNA0); details: read-out: hADAMTS-5 potency IC50
# Procedure: Finally, the fluorescence is read on the Envision (Perkin Elmer) after an incubation of 90 min at 37° C.
# human TACE = human TACE (Homo sapiens (Human), UniProt P78536); details: read-out: TACE potency IC50
# human TACE, sequence (P78536 whole entry, looked up, change not shown): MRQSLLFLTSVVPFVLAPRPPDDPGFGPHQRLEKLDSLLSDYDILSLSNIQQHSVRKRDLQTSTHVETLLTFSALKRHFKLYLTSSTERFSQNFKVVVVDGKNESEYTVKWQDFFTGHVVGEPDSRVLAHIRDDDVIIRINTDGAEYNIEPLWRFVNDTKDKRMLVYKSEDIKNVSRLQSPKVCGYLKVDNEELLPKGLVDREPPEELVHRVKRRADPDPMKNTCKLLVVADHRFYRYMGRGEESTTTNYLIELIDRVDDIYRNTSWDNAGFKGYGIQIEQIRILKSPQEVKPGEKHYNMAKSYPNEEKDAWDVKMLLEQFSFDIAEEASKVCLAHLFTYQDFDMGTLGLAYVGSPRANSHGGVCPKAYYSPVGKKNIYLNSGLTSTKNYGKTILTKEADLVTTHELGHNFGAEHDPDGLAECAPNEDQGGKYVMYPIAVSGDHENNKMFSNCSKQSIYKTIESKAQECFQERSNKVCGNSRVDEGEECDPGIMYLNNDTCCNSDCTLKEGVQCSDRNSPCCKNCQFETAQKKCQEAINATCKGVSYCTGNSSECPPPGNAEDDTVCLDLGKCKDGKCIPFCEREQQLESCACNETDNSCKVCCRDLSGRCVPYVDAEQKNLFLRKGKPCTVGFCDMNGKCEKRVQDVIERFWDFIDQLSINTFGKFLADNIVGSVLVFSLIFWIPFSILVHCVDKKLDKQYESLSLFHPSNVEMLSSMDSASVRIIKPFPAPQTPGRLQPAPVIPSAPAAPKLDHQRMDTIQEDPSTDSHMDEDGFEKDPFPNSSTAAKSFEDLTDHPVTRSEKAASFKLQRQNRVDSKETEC
# human ADAMTS-5, sequence (Q9UNA0 262-930): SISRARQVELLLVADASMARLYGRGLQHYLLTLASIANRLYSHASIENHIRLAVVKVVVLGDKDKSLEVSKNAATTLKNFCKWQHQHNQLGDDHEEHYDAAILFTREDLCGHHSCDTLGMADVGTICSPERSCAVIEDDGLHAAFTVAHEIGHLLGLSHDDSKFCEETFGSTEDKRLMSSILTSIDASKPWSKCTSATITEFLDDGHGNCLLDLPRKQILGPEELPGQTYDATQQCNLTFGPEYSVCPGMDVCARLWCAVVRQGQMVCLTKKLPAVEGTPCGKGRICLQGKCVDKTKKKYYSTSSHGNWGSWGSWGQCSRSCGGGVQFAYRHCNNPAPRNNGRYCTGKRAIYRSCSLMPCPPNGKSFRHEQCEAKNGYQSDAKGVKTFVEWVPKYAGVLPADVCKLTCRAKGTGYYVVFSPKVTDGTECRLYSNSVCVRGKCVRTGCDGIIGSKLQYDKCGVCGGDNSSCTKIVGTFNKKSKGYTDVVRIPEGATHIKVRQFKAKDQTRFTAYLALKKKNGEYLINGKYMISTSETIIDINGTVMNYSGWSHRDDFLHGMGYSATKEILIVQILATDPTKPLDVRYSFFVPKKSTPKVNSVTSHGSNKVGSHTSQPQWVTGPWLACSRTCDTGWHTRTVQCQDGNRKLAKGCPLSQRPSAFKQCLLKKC
Structure (SMILES),IC50 (human MMP13),IC50 (rnADAMTS-5 (1-564-6H)),IC50 (human ADAMTS-5),IC50 (human TACE)
"O=C1NC(=O)C(CCC(=O)N2CCN(c3cc(Cl)cc(Cl)c3)CC2)(CNCc2ccccc2)N1 (centres unmarked) [Cpd 181, 5-[(benzylamino)methyl]-5-[3-[4-(3,5-dichlorophenyl)piperazin-1-yl]-3-oxo-propyl]imidazolidine-2,4-dione]",> 20000 nM,127 nM,97 nM,2860 nM
"COC(=O)CC1(CCC(=O)N2CCN(c3cc(Cl)cc(Cl)c3)CC2)NC(=O)NC1=O (centres unmarked) [Cpd 182, Methyl 2-[4-[3-[4-(3,5-dichlorophenyl)piperazin-1-yl]-3-oxo-propyl]-2,5-dioxo-imidazolidin-4-yl]acetate]",> 20000 nM,87 nM,104 nM,> 4000 nM
"CC(C)(C)OC(=O)CC1(CCC(=O)N2CCN(c3cc(Cl)cc(Cl)c3)CC2)NC(=O)NC1=O (centres unmarked) [Cpd 188, tert-butyl 2-[4-[3-[4-(3,5-dichlorophenyl)piperazin-1-yl]-3-oxo-propyl]-2,5-dioxo-imidazolidin-4-yl]acetate]",2670 nM,54 nM,53 nM,> 4000 nM
"O=C(CC1(CCC(=O)N2CCN(c3cc(Cl)cc(Cl)c3)CC2)NC(=O)NC1=O)NCCO (centres unmarked) [Cpd 189, 2-[4-[3-[4-(3,5-dichlorophenyl)piperazin-1-yl]-3-oxo-propyl]-2,5-dioxo-imidazolidin-4-yl]-N-(2-hydroxyethyl)acetamide]",> 20000 nM,254 nM,256 nM,> 4000 nM
"COc1ccccc1C1(CCC(=O)N2CCN(c3cccc(Cl)c3)CC2)NC(=O)NC1=O (centres unmarked) [compound 146, 5-[3-[4-(3-chlorophenyl)piperazin-1-yl]-3-oxo-propyl]-5-(2-methoxyphenyl)imidazolidine-2,4-dione]",3880 nM,133 nM,–,1580 nM
"C[C@H]1CN(C(=O)CCC2(C3CC3)NC(=O)NC2=O)CCN1c1ccc(Cl)cc1 (stereo partly drawn) [compound 147, 5-[3-[(3S)-4-(4-chlorophenyl)-3-methyl-piperazin-1-yl]-3-oxo-propyl]-5-cyclopropyl-imidazolidine-2,4-dione]",> 4000 nM,99 nM,–,> 4000 nM
"Cc1ccc(F)cc1N1CCN(C(=O)CCC2(C3CC3)NC(=O)NC2=O)C[C@@H]1C (stereo partly drawn) [compound 148, 5-cyclopropyl-5-[3-[(3S)-4-(5-fluoro-2-methyl-phenyl)-3-methyl-piperazin-1-yl]-3-oxo-propyl]imidazolidine-2,4-dione]",> 20000 nM,97 nM,–,> 4000 nM
"C[C@H]1CN(C(=O)CCC2(C3CC3)NC(=O)NC2=O)CCN1c1cccc(F)c1 (stereo partly drawn) [compound 151, 5-cyclopropyl-5-[3-[(3S)-4-(3-fluorophenyl)-3-methyl-piperazin-1-yl]-3-oxo-propyl]imidazolidine-2,4-dione]",> 20000 nM,83 nM,–,> 20000 nM
"C[C@H]1CN(C(=O)CCC2(C3CC3)NC(=O)NC2=O)CCN1c1cccc(Cl)c1 (stereo partly drawn) [compound 152, 5-[3-[(3S)-4-(3-chlorophenyl)-3-methyl-piperazin-1-yl]-3-oxo-propyl]-5-cyclopropyl-imidazolidine-2,4-dione]",> 20000 nM,62 nM,–,> 20000 nM
"O=C1Cc2cc(C3(CCC(=O)N4CCN(c5cccc(Cl)c5)CC4)NC(=O)NC3=O)ccc2N1 (centres unmarked) [compound 153, 5-[3-[4-(3-chlorophenyl)piperazin-1-yl]-3-oxo-propyl]-5-(2-oxoindolin-5-yl)imidazolidine-2,4-dione]",> 4000 nM,114 nM,–,2270 nM
"COCCN(C)CC1(CCC(=O)N2CCN(c3cccc(Cl)c3)CC2)NC(=O)NC1=O (centres unmarked) [compound 154, 5-[3-[4-(3-chlorophenyl)piperazin-1-yl]-3-oxo-propyl]-5-[[2-methoxyethyl(methyl)amino]methyl]imidazolidine-2,4-dione]",> 4000 nM,507 nM,–,> 20000 nM
"C[C@H]1CN(C(=O)CCC2(C)NC(=O)NC2=O)CCN1c1cc(F)cc(F)c1 (stereo partly drawn) [compound 156, 5-[3-[(3S)-4-(3,5-difluorophenyl)-3-methyl-piperazin-1-yl]-3-oxo-propyl]-5-methyl-imidazolidine-2,4-dione]",> 20000 nM,128 nM,–,> 20000 nM
"C[C@H]1CN(C(=O)CCC2(C)NC(=O)NC2=O)CCN1c1cccc(F)c1 (stereo partly drawn) [compound 157, 5-[3-[(3S)-4-(3-fluorophenyl)-3-methyl-piperazin-1-yl]-3-oxo-propyl]-5-methyl-imidazolidine-2,4-dione]",> 20000 nM,284 nM,–,> 20000 nM
"C[C@]1(CCC(=O)N2CCN(c3cc(Cl)cc(Cl)c3)CC2)NC(=O)NC1=O [compound 159, (5R)-5-[3-[4-(3,5-dichlorophenyl)piperazin-1-yl]-3-oxo-propyl]-5-methyl-imidazolidine-2,4-dione]",> 20000 nM,127 nM,–,1870 nM
"C[C@H]1CN(C(=O)CCC2(C3CC3)NC(=O)NC2=O)CCN1c1cc(F)cc(F)c1 (stereo partly drawn) [compound 160, 5-cyclopropyl-5-[3-[(3S)-4-(3,5-difluorophenyl)-3-methyl-piperazin-1-yl]-3-oxo-propyl]imidazolidine-2,4-dione]",> 20000 nM,36 nM,–,> 20000 nM
"C[C@H]1CN(C(=O)CCC2(C3CC3)NC(=O)NC2=O)CCN1c1ccc(F)c(F)c1 (stereo partly drawn) [compound 161, 5-cyclopropyl-5-[3-[(3S)-4-(3,4-difluorophenyl)-3-methyl-piperazin-1-yl]-3-oxo-propyl]imidazolidine-2,4-dione]",> 20000 nM,37 nM,54 nM,> 20000 nM
"C[C@H]1CN(C(=O)CCC2(C3CC3)NC(=O)NC2=O)CCN1c1ccc(Cl)c(F)c1 (stereo partly drawn) [compound 162, 5-[3-[(3S)-4-(4-chloro-3-fluoro-phenyl)-3-methyl-piperazin-1-yl]-3-oxo-propyl]-5-cyclopropyl-imidazolidine-2,4-dione]",> 4000 nM,45 nM,39 nM,> 20000 nM
"C[C@H]1CN(C(=O)CCC2(C3CC3)NC(=O)NC2=O)CCN1c1ccc(F)c(Cl)c1 (stereo partly drawn) [compound 163, 5-[3-[(3S)-4-(3-chloro-4-fluoro-phenyl)-3-methyl-piperazin-1-yl]-3-oxo-propyl]-5-cyclopropyl-imidazolidine-2,4-dione]",> 20000 nM,45 nM,40 nM,> 20000 nM
"C[C@H]1CN(C(=O)CCC2(C3CC3)NC(=O)NC2=O)CCN1c1ccc(Cl)c(Cl)c1 (stereo partly drawn) [compound 167, 5-cyclopropyl-5-[3-[(3S)-4-(3,4-dichlorophenyl)-3-methyl-piperazin-1-yl]-3-oxo-propyl]imidazolidine-2,4-dione]",> 4000 nM,10 nM,19 nM,> 4000 nM
"C[C@H]1CN(C(=O)CCC2(C)NC(=O)NC2=O)CCN1c1ccc(Cl)c(Cl)c1 (stereo partly drawn) [compound 168, 5-[3-[(3S)-4-(3,4-dichlorophenyl)-3-methyl-piperazin-1-yl]-3-oxo-propyl]-5-methyl-imidazolidine-2,4-dione]",> 20000 nM,129 nM,76 nM,> 20000 nM
"C[C@H]1CN(C(=O)CCC2(C3CC3)NC(=O)NC2=O)CCN1c1cc(F)cc(Cl)c1 (stereo partly drawn) [compound 169, 5-[3-[(3S)-4-(3-chloro-5-fluoro-phenyl)-3-methyl-piperazin-1-yl]-3-oxo-propyl]-5-cyclopropyl-imidazolidine-2,4-dione]",> 20000 nM,27 nM,30 nM,> 20000 nM
"C[C@H]1CN(C(=O)CCC2(C)NC(=O)NC2=O)CCN1c1cc(F)cc(Cl)c1 (stereo partly drawn) [compound 170, 5-[3-[(3S)-4-(3-chloro-5-fluoro-phenyl)-3-methyl-piperazin-1-yl]-3-oxo-propyl]-5-methyl-imidazolidine-2,4-dione]",> 20000 nM,244 nM,170 nM,–
"CC(CC1(C2CC2)NC(=O)NC1=O)C(=O)N1CCN(c2cc(Cl)cc(Cl)c2)CC1 (centres unmarked) [compound 172, 5-cyclopropyl-5-[3-[4-(3,5-dichlorophenyl)piperazin-1-yl]-2-methyl-3-oxo-propyl]imidazolidine-2,4-dione]",2740 nM,11 nM,17 nM,311 nM
"Cc1ccc(F)cc1N1CCN(C(=O)C(C)CC2(C3CC3)NC(=O)NC2=O)CC1 (centres unmarked) [compound 174, 5-cyclopropyl-5-[3-[4-(5-fluoro-2-methyl-phenyl)piperazin-1-yl]-2-methyl-3-oxo-propyl]imidazolidine-2,4-dione]",> 20000 nM,17 nM,21 nM,321 nM
"Cc1ccc(F)cc1N1CCN(C(=O)C(C)CC2(C)NC(=O)NC2=O)CC1 (centres unmarked) [compound 175, 5-[3-[4-(5-fluoro-2-methyl-phenyl)piperazin-1-yl]-2-methyl-3-oxo-propyl]-5-methyl-imidazolidine-2,4-dione]",> 20000 nM,22 nM,25 nM,251 nM
"Cc1c(Cl)cccc1N1CCN(C(=O)C(C)CC2(C3CC3)NC(=O)NC2=O)CC1 (centres unmarked) [compound 176, 5-[3-[4-(3-chloro-2-methyl-phenyl)piperazin-1-yl]-2-methyl-3-oxo-propyl]-5-cyclopropyl-imidazolidine-2,4-dione]",> 20000 nM,7 nM,16 nM,1230 nM
"CC(CC1NC(=O)NC1=O)C(=O)N1CCN(c2cc(Cl)cc(Cl)c2)CC1 (centres unmarked) [compound 200, 5-[3-[4-(3,5-dichlorophenyl)piperazin-1-yl]-2-methyl-3-oxo-propyl]imidazolidine-2,4-dione]",> 20000 nM,135 nM,109 nM,–
"CC(CC1NC(=O)NC1=O)C(=O)N1CCN(c2cc(Cl)cc(Cl)c2)CC1 (centres unmarked) [compound 219, 5-[3-[4-(3,5-dichlorophenyl)piperazin-1-yl]-2-methyl-3-oxo-propyl]imidazolidine-2,4-dione]",> 4000 nM,29 nM,41 nM,–
